{"source": "patent US20140370080A1", "about": "“HISTONE DEACETYLASE (HDAC) INHIBITORS FOR TREATMENT OF POST-SURGICAL ADHESIONS” (TRUSTEES OF BOSTON UNIVERSITY, priority 2011, published 2014)", "key": {"[1]": {"tested_on": "adhesion formation", "experiment": "Ischemic button model of intraabdominal adhesion formation, adhesion scoring on postoperative day 7", "type": "in vivo, Male Wistar rats", "conditions": "for % Reduction (of adhesion formation vs control) / Mean adhesion formation (percentage of ischemic buttons with attached adhesions): rats, single intra-operative intraperitoneal dose (SAHA 50 mg/kg, MS-275 10 mg/kg); for % Reduction (of adhesion formation vs control): postoperative day 7; for Mean adhesion formation (percentage of ischemic buttons with attached adhesions): scored postoperative day 7, N=6; for treatment of surgical adhesions (result in words): single intra-operative dose, FIG. 4", "protocol": "(§1) The surgical procedure described in Chu et al. (Surgery, 2011, 149(6): 801-812), content of which is herein incorporated by reference in its entirety, was used to test the HDAC inhibitors discussed herein. […] Adhesions were induced on the day of operation using our previously described ischemic button model. Animals were killed on postoperative day 7 for adhesion scoring. The effect of the HDAC inhibitors on intestinal wound healing was measured using colonic anastomotic burst pressures.\nMale Wistar rats (range, 200-225 g; Charles River Laboratories, Wilmington, Mass.) warehoused at constant room temperature and under 12-hour light/12-hour dark cycles and allowed access to food and water ad libitum. The Institutional Animal Care and Use Committee at the Boston University School of Medicine approved this study, and all procedures described were performed in accordance with recommendations outlined in the Guide for the Care and Use of Laboratory Animals: Eighth Edition (NRC 2011) published by the National Academies of Science.\nIntraperitoneal ischemic buttons were created as described in Reed et al. (J. Surgical Res., 2002, 108:165-172), content of which is herein incorporated by reference in its entirety. In brief, after a midline laparotomy, 6 ischemic buttons (3 on each side) were created by ligating 5 mm of parietal peritoneum with 4-0 silk suture. Adhesion formation was quantified in a blinded fashion on postoperative day 7 by scoring the percentage of buttons with attached fibrinous adhesions in each rat. For example, an animal that had adhesions attached to 4 of its 6 ischemic buttons received a score of 66%."}, "[2]": {"tested_on": "anastomotic wound healing", "experiment": "Colonic anastomotic burst pressure (intestinal wound healing)", "type": "in vivo, Male Wistar rats", "conditions": "50 mg/kg intraperitoneally, single intra-op dose, at 7 days, FIG. 3B", "protocol": "as §1\nIn the final experiment, the inventors tested the effects of intraperitoneal HDAC inhibitors on anastomotic wound healing. Male Wistar rats were randomized to operative controls (OP Control) or operative treatment with HDAC inhibitor as noted in the figure. […] In brief, after laparotomy and division of the distal colon, an end-to-end colonic anastomosis was created using a single running layer of 7-0 polypropylene suture. Animals were killed 7 days postoperatively and, after removing a 4-cm segment containing the anastomosis, the segment underwent measurements of burst pressure as described in Aarons et al. (Annals of Surgery, 2007, 245(2): 176-184), content of which is incorporated herein by reference in its entirety."}}, "data": [{"smiles": "Nc1ccccc1NC(=O)c1ccc(CNC(=O)OCc2cccnc2)cc1", "note": "[MS-275]", "values": [{"measurement": "% Reduction (of adhesion formation vs control)", "setting": "[1]", "value": 45.16, "unit": "%"}, {"measurement": "Mean adhesion formation (percentage of ischemic buttons with attached adhesions)", "setting": "[1]", "value": 47.2222, "unit": "%"}, {"measurement": "treatment of surgical adhesions (result in words)", "setting": "[1]", "value": "effective"}]}, {"smiles": "O=C(CCCCCCC(=O)Nc1ccccc1)NO", "note": "[SAHA, suberoylanlide hydroxamic acid]", "values": [{"measurement": "% Reduction (of adhesion formation vs control)", "setting": "[1]", "value": 48.39, "unit": "%"}, {"measurement": "Mean adhesion formation (percentage of ischemic buttons with attached adhesions)", "setting": "[1]", "value": 44.4444, "unit": "%"}, {"measurement": "treatment of surgical adhesions (result in words)", "setting": "[1]", "value": "effective"}]}, {"smiles": "CCCC(CCC)C(=O)O", "note": "[valproic acid]", "values": [{"measurement": "anastomotic wound healing (burst pressure)", "setting": "[2]", "value": "did not affect"}, {"measurement": "adhesion formation", "setting": "[1]; 25 mg/kg, three doses (pre-op, intra-op and pre-op), FIG. 2A", "value": "effective"}, {"measurement": "adhesion formation", "setting": "[1]; 50 mg/kg intraperitoneally, 3 doses (24 hr pre-op, intra-op, 24 hrs post-op), at 7 days, FIG. 1B", "value": "significantly reduced"}, {"measurement": "adhesion formation", "setting": "[1]; 50 mg/kg intraperitoneally, single intra-op dose, at 7 days, FIG. 2A", "value": "significantly reduced"}, {"measurement": "adhesion formation", "setting": "[1]; 100 mg/kg intraperitoneally, 3 doses (24 hr pre-op, intra-op, 24 hrs post-op), at 7 days, FIG. 1A", "value": "significantly reduced"}, {"measurement": "adhesion formation", "setting": "[1]; 200 mg/kg intraperitoneally, 3 doses (24 hr pre-op, intra-op, 24 hrs post-op), FIG. 1A", "value": "effective"}]}]}
